In PMC5045383 (Oncotarget, 2016):

What was measured:
MOLM-13 (FLT3-ITD/wt) = test: Cell proliferation assay (CellTiter-Glo); type: cell-based, human
Procedure: (§1) The human AML cell lines MV4-11, U937, OCI-AML-3 were purchased from the American Type Culture Collection (ATCC) (Manassas, VA, USA). The FLT3-ITD-expressing lines, MOLM-13, MOLM-14, were provided by Dr. Scott Armstrong, Dana Farber Cancer Institute (DFCI), Boston, MA. The wt FLT3-expressing AML line, NB4 (KRAS A18D), was obtained from Dr. Gary Gilliland. […] MV4-11 was cultured in IDMEM media (Corning, USA) with 10% FBS and supplemented with 2% L-glutamine and 1% penicillin/streptomycin. OCI-AML-3 was cultured in α-MEM media (Corning, USA) with 10% FBS and supplemented with 2% L-glutamine and 1% penicillin/streptomycin. All cell lines were maintained in culture media at 37°C with 5% CO2.
(§2) Cells were grown in 96-well culture plates (3000/well). […] Cell proliferation was determined after 72 hours drug treatment. […] Cell viability was measured with the CellTiter–Glo assay (Promega, USA), according to the manufacturer's instructions, and luminescence was measured in a multi-label reader (Envision, PerkinElmer, USA). […] GI50 values were calculated using Prism 5.0 (GraphPad Software, San Diego, CA).

MOLM-14 (FLT3-ITD/wt) = test: Cell proliferation assay (CellTiter-Glo); type: cell-based, human
Procedure: as §1, §2

MV4-11 (FLT3-ITD) = test: Cell proliferation assay (CellTiter-Glo); type: cell-based, human
Procedure: as §1, §2

NB4 (FLT3-wt) = test: Cell proliferation assay (CellTiter-Glo); type: cell-based, human; settings: 72 hours
Procedure: as §1, §2

OCI-AML-3 (FLT3-wt) = test: Cell proliferation assay (CellTiter-Glo); type: cell-based, human; settings: 72 hours
Procedure: as §1, §2

U937 (FLT3-wt) = test: Cell proliferation assay (CellTiter-Glo); type: cell-based, human; settings: 72 hours
Procedure: as §1, §2

HL-60 (FLT3-wt) = test: Cell proliferation assay (CellTiter-Glo); type: cell-based, human; settings: 72 hours
Procedure: as §2

SKM-1 (FLT3-wt) = test: Cell proliferation assay (CellTiter-Glo); type: cell-based, human; settings: 72 hours
Procedure: as §2

PF-382 (FLT3-wt) = test: cells; type: cell-based; settings: 72 hours
Procedure: as §2

BaF3 = test: Anti-proliferation, parental BaF3 cells; type: cell-based
Procedure: Cells were grown in 96-well culture plates (3000/well). […] Cell proliferation was determined after 72 hours drug treatment. […] Cell viability was measured with the CellTiter–Glo assay (Promega, USA), according to the manufacturer's instructions, and luminescence was measured in a multi-label reader (Envision, PerkinElmer, USA). Data were normalized to control groups (DMSO) and represented by the mean of three independent measurements with standard error < 20%. GI50 values were calculated using Prism 5.0 (GraphPad Software, San Diego, CA).
Retroviral constructs for BaF3-FLT3 mutants were made based on the pMSCVpuro (Clontech) backbone. For TEL-FLT3 vector, the first 1 kb of human TEL gene with an artificial myristoylation sequence ([…]) was cloned into pMSCVpuro retroviral vector, followed by a 3xFLAG tag sequence and a stop codon. Then the kinase domain coding sequence of FLT3 was inserted in-frame between TEL and 3× FLAG sequences. For full-length expression vectors, the coding sequences of FLT3 variants were directly cloned in pMSCVpuro vector with a 3X FLAG tag at the C-terminal end. All mutagenesis studies were performed using the QuikChange Site-Directed Mutagenesis Kit (Stratagene) following the manufacturer's instructions. […]

MOLM13 = test: Colony formation (clonogenic) assay; type: cell-based, human; settings: MOLM13, 15 days
Procedure: (§3) In brief, 1 mL of 3% agarose combined with 1 mL MOLM-13, MOLM-14, MV4-11, PF-382, U937, HL-60 growth media was used as the bottom agar in a 6-well plate. […] Cells were maintained in a humidified 5% CO2 incubator at 37°C for 15 days. On the 15th day, the numbers of colonies in each well were counted and each measurement was performed in triplicate.

MOLM14 = test: Colony formation (clonogenic) assay; type: cell-based, human; settings: MOLM14, 15 days
Procedure: as §3

MV4-11 = test: Colony formation (clonogenic) assay; type: cell-based, human; settings: MV4-11, 15 days
Procedure: as §3

PF382 = test: Colony formation (clonogenic) assay; type: cell-based, human; settings: PF382, 15 days
Procedure: as §3

U937 = test: Colony formation (clonogenic) assay; type: cell-based, human; settings: U937, 15 days
Procedure: as §3

[1] = system: FLT3-ITD mediated signaling in MOLM14 and MV4-11 cell lines; test: Signaling pathway effect examination (immunoblot); type: cell-based, human; settings: intact FLT3-ITD-positive cell lines, 4 hours
Source text: Cells were then washed in PBS and lysed in cell lysis buffer. FLT3, Phospho-FLT3 (Tyr589/591), AKT, Phospho-AKT Ser473, Phospho-AKT Thr308, GSK-3β, Phospho-GSK-3β (Ser9), Phospho-FoxO1 (Thr24), FoxO1, PRAS40, Phospho-PRAS40 (Thr246), STAT5, Phospho-STAT5 (Tyr694), NF-ΚB-P65, Phospho-NF-ΚB-P65 (Ser536), P70S6K, Phospho-P70S6K Thr389, 4EBP1, Phospho-4EBP1 (Thr37/46), ERK, Phospho-p44/42MAPK (Erk1/2) (Thr202/Tyr204), C-Myc and GAPDH antibodies (Cell Signaling Technology) were used for immunoblotting.

FLT3-ITD kinase = molecular target: FLT3-ITD kinase; design: method as in PMID 22037378; settings: cited from earlier work

`Cc1[nH]nc2ccc(-c3cncc(OC[C@@H](N)Cc4ccccc4)c3)cc12` [A674563] showed a GI50 (MOLM-13 (FLT3-ITD/wt); MOLM-13 (FLT3-ITD/wt), 72 hours, Table 1) of 60 nM, a GI50 (MOLM-13 (FLT3-ITD/wt); MOLM-13+FL(1 ng/mL)) of 61 nM and a GI50 (MOLM-13 (FLT3-ITD/wt); MOLM-13+FL(5 ng/mL)) of 58 nM. It also gave a GI50 (MOLM-13 (FLT3-ITD/wt); MOLM-13+FL(10 ng/mL)) of 59 nM, a GI50 (MOLM-13 (FLT3-ITD/wt); MOLM-13, no FLT3 ligand, Table 3) of 60 nM and a GI50 (MOLM-14 (FLT3-ITD/wt); MOLM-14 (FLT3-ITD/wt), 72 hours, Table 1) of 180 nM. The GI50 (MOLM-14 (FLT3-ITD/wt); MOLM-14+FL(1 ng/mL)) was 210 nM, the GI50 (MOLM-14 (FLT3-ITD/wt); MOLM-14+FL(5 ng/mL)) was 190 nM and the GI50 (MOLM-14 (FLT3-ITD/wt); MOLM-14+FL(10 ng/mL)) was 180 nM. It also gave a GI50 (MOLM-14 (FLT3-ITD/wt); MOLM-14, no FLT3 ligand, Table 3) of 180 nM, a GI50 (MV4-11 (FLT3-ITD); MV4-11 (FLT3-ITD), 72 hours, Table 1) of 75 nM and a GI50 (MV4-11 (FLT3-ITD); MV4-11+FL(10 ng/mL)) of 78 nM. It also gave a GI50 (MV4-11 (FLT3-ITD); MV4-11, no FLT3 ligand, Table 3) of 75 nM, a GI50 (NB4 (FLT3-wt)) of 480 nM and a GI50 (OCI-AML-3 (FLT3-wt)) of 670 nM. It also gave a GI50 (U937 (FLT3-wt)) of 520 nM, a GI50 (HL-60 (FLT3-wt)) of 2600 nM and a GI50 (SKM-1 (FLT3-wt)) of 2000 nM. For the same compound, the GI50 (PF-382 (FLT3-wt)) was 2700 nM, the GI50 (BaF3) was 1600 nM and the EC50 (MOLM13) was 170 nM. The EC50 (MOLM14) was 61 nM, the EC50 (MV4-11) was 92 nM and the EC50 (PF382) was 861 nM. For the same compound, the EC50 (U937) was 505 nM, the “concentration from which auto-phosphorylation of FLT3-ITD at Y589/591 is affected” value [1] was at least 5 µM and the “concentration from which phosphorylation of STAT5 and expression of c-MYC are inhibited” value [1] was at least 0.5 µM. The Kd (FLT3-ITD kinase) was 83 nM.
